Measured values taken from the NIST ThermoML archive (doi:10.1016/j.jct.2006.09.008).

Test: molar heat capacity at constant pressure; mn = molality of the nth substance listed, in mol/kg
Details: 350 kPa, Liquid

O=[N+]([O-])[O-].O=[N+]([O-])[O-].[Mg+2] [magnesium nitrate] + O
molar heat capacity at constant pressure [J/K/mol]
Details	m1 = 0.0228	m1 = 0.0567	m1 = 0.1086	m1 = 0.2145	m1 = 0.3197	m1 = 0.4749	m1 = 0.6211	m1 = 0.811	m1 = 1.014
278.15 K	75.58	75.4	75.14	74.65	74.24	73.72	73.31	72.9	72.59
283.15 K	75.43	75.26	75.04	74.61	74.25	73.79	73.43	73.07	72.79
288.15 K	75.33	75.17	74.98	74.6	74.28	73.86	73.54	73.22	72.97
293.15 K	75.26	75.12	74.94	74.6	74.31	73.94	73.65	73.35	73.12
298.15 K	75.22	75.09	74.92	74.62	74.35	74.01	73.74	73.47	73.26
303.15 K	75.19	75.07	74.92	74.64	74.39	74.07	73.83	73.58	73.38
308.15 K	75.18	75.07	74.92	74.66	74.43	74.13	73.91	73.67	73.48
313.15 K	75.18	75.07	74.94	74.69	74.47	74.19	73.98	73.75	73.58
318.15 K	75.2	75.09	74.96	74.72	74.52	74.25	74.04	73.83	73.66
323.15 K	75.22	75.12	74.99	74.76	74.56	74.3	74.11	73.9	73.74
328.15 K	75.25	75.15	75.03	74.81	74.61	74.36	74.17	73.97	73.82
333.15 K	75.29	75.19	75.07	74.85	74.66	74.42	74.23	74.03	73.89
338.15 K	75.34	75.24	75.12	74.91	74.72	74.48	74.3	74.1	73.95
343.15 K	75.39	75.3	75.18	74.96	74.78	74.54	74.36	74.16	74.02
348.15 K	75.46	75.36	75.24	75.02	74.84	74.6	74.42	74.22	74.08
353.15 K	75.53	75.43	75.31	75.09	74.9	74.66	74.48	74.28	74.14
358.15 K	75.61	75.51	75.38	75.16	74.97	74.73	74.55	74.35	74.2
363.15 K	75.69	75.59	75.46	75.24	75.04	74.8	74.61	74.42	74.27
368.15 K	75.78	75.68	75.55	75.32	75.12	74.87	74.68	74.48	74.33
373.15 K	75.88	75.78	75.64	75.4	75.21	74.95	74.76	74.55	74.4
378.15 K	75.99	75.88	75.74	75.5	75.32	75.05	74.83	74.63	74.47
383.15 K	76.11	76	75.85	75.6	75.42	75.14	74.92	74.71	74.55
388.15 K	76.24	76.12	75.97	75.7	75.52	75.24	75.03	74.79	74.63
393.15 K	76.38	76.25	76.09	75.82	75.63	75.34	75.15	74.89	74.73
